# Read-outs that look alike come from different tables or passages of the source.
# How the values were obtained:
# [1] = molecular target: BLK (Homo sapiens, UniProt P51451); test: Protein kinase panel at 1 µM, BLK; assay type: biochemical
# [2] = molecular target: FGR (Homo sapiens, UniProt P09769); test: Protein kinase panel at 1 µM, FGR; assay type: biochemical
# [3] = molecular target: FLT1 (Homo sapiens, UniProt P17948); test: Protein kinase panel at 1 µM, FLT1; assay type: biochemical
# [4] = molecular target: LYN A (Homo sapiens, UniProt P07948); test: Protein kinase panel at 1 µM, LYN A; assay type: biochemical
# [5] = molecular target: CYP2B6 (Homo sapiens, UniProt P20813); assay type: in vitro ADME
# Description: (§1) Table S8 Inhibition of CYP isozymes by SY-1530 […]
# (§2) (1 picture or pasted object on this page, not shown here)
# [6] = molecular target: CYP2C19 (Homo sapiens, UniProt P33261); assay type: in vitro ADME
# Description: as §1, §2
# [7] = molecular target: CYP2D6 (Homo sapiens, UniProt P10635); assay type: in vitro ADME
# Description: as §1, §2
# [8] = molecular target: BTK (Homo sapiens, UniProt Q06187); test: Competition with fluorescent probe FL-SY-1530 in DOHH2 cells (Typhoon imaging); assay type: cell-based; conditions: 10 nM inhibitor 1 h, then 2.5 µM FL-SY-1530 1 h
# Protocol: Data are shown as the mean ± SEM. […] Data are shown as the mean ± SEM of 3 independent experiments. Statistical analysis was performed with Student’s t-test (**P < 0.01, ***P < 0.001). […] Cells were lysed and then analyzed by Western blot and fluorescent gel scanning. […] Cells were lysed and analyzed by Western blot and fluorescent gel scanning.
# [9] = system: human peripheral B cells; test: CD69 up-regulation in B cells after anti-IgM stimulation; assay type: cell-based
# Protocol: CD19^+ B (>80% purity) and CD3^+ T (>90% purity) cells were purified with human B cell enrichment cocktail and human T cell enrichment cocktail (Stem Cell Technology), respectively. Cells were seeded on 12-well plates and incubated with different concentrations of BTK inhibitors for 1 h. B cells were stimulated with 50 µg/mL anti-human IgM F(ab′)2, and T cells were stimulated with 50 µg/mL anti-CD3/CD28 beads overnight. In the washout groups, the cell medium containing the indicated inhibitors was replaced with fresh medium before stimulation. Then cells were then incubated with anti-human CD69 for 1 h and analyzed with a Guava flow cytometer.
# Figure 4 SY-1530 blocks B-cell receptor signaling and induces apoptosis. (A–D) Human B and T cells were purified and incubated with different concentrations of BTK inhibitors for 1 h. B cells were stimulated with 50 μg/mL anti-human IgM F(ab′)2, and T cells were stimulated with 50 μg/mL anti-CD3/CD28 beads overnight directly or after washout of BTK inhibitors before stimulation. The percentage of CD69 positive cells was analyzed by flow cytometry. Data are shown as the mean ± SEM (n = 3). Statistical analysis was performed with Student’s t-test (*P < 0.05, **P < 0.01, ***P < 0.001). (E) Pfeiffer cells and Romas cells were preincubated with different concentrations of compounds for 1 h, washed with PBS, and then stimulated with anti-IgM/anti-IgG (10 μg/mL) for 10 min. Cells were lysed and analyzed by Western blot with the indicated antibodies. (F) Pfeiffer cells were treated with various concentrations of SY-1530 for 24 h. The cells were stained with both PE-Annexin and 7-AAD and analyzed by flow cytometry. Data are shown as the mean ± SEM (n = 3). Statistical analysis was performed with Student’s t-test (*P < 0.05, **P < 0.01). (G) Pfeiffer cells were incubated with BTK inhibitors in the presence of z-VAD-fmk (caspase inhibitor) or DMSO for 24 h. Cells were lysed and analyzed with specific antibodies.
# [10] = molecular target: T1, BTK (Mus musculus, UniProt P35991); test: In vivo occupancy of BTK in mouse splenocytes; conditions: BALB/c mice, oral 50 mg/kg, 12 h after administration
# T1 construct: from tissue; host or cells: splenocytes from spleens of normal BALB/c mice
# Protocol: Cells were treated as indicated before the addition of a fluorescent probe (FL-SY-1530). After incubation, cells were collected and lysed for 5 min in cell lysis buffer. For analysis of the in vivo occupancy of BTK inhibitors, normal BALB/c mice (6–8 weeks old) were orally administered BTK inhibitors, […] seeded on 12-well plates and incubated with the fluorescent probe for 1 h. Then the samples were subjected to SDS-PAGE, and the gels were scanned with a Typhoon imaging system (excitation at 532 nm and emission at 555 nm). After scanning, the gels were detected with Western blot.
# Figure 3 SY-1530 binds BTK in a dose-dependent and time-dependent manner. (A) The content of SY-1530 was measured with LC-MS/MS after incubation with BTK for the indicated time periods. Data are shown as the mean ± SEM. (B) SY-1530 was incubated with different concentrations of BTK, and LC-MS/MS was then performed to detect SY-1530 content. Data are shown as the mean ± SEM of 3 independent experiments. Statistical analysis was performed with Student’s t-test (**P < 0.01, ***P < 0.001). […] Cells were lysed and then analyzed by Western blot and fluorescent gel scanning. […] The concentration of SY-1530 in the plasma was measured with LC-MS/MS. […] Cells were lysed and analyzed by Western blot and fluorescent gel scanning. The concentration of SY-1530 in the plasma was measured with LC-MS/MS.
# [11] = dog, in vivo
# [12] = rat
# [13] = molecular target: TEC (Homo sapiens, UniProt P42680); test: HTRF kinase assay, TEC
# Chain of TEC (P42680 whole entry): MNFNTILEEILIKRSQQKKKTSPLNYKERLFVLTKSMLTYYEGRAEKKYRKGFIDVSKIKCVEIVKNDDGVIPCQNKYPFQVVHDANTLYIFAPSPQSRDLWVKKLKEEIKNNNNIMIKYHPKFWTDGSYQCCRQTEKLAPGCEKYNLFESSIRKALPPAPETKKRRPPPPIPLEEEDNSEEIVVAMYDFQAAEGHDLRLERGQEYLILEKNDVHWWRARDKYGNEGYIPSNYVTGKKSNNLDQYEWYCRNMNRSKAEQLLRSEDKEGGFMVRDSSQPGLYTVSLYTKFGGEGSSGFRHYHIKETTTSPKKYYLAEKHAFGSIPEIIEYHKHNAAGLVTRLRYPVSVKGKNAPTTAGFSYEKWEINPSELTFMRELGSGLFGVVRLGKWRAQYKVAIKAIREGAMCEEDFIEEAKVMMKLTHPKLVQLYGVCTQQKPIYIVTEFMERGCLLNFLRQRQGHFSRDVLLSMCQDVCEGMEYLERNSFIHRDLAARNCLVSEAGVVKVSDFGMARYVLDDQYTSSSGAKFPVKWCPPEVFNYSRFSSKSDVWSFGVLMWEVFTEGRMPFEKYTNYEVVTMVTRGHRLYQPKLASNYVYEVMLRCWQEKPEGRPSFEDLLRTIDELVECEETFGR
# Protocol: Homogeneous time-resolved fluorescence (HTRF) assays were performed with a HTRF® KinEASE™-TK kit (Trevigen).
# Chain of CYP2B6 (P20813 whole entry): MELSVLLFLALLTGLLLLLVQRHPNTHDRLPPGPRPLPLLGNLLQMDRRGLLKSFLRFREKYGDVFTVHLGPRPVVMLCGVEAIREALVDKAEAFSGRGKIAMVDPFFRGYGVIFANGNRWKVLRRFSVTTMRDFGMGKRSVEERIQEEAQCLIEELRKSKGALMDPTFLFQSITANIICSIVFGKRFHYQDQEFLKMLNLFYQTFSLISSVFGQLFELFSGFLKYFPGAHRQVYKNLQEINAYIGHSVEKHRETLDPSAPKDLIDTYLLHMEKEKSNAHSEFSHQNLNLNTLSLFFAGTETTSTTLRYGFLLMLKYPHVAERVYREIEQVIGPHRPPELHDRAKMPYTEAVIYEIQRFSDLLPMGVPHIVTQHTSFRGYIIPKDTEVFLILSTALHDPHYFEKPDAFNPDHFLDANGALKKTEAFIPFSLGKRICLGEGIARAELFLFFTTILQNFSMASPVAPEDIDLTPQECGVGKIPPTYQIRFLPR
# Chain of FLT1 (P17948 27-1338): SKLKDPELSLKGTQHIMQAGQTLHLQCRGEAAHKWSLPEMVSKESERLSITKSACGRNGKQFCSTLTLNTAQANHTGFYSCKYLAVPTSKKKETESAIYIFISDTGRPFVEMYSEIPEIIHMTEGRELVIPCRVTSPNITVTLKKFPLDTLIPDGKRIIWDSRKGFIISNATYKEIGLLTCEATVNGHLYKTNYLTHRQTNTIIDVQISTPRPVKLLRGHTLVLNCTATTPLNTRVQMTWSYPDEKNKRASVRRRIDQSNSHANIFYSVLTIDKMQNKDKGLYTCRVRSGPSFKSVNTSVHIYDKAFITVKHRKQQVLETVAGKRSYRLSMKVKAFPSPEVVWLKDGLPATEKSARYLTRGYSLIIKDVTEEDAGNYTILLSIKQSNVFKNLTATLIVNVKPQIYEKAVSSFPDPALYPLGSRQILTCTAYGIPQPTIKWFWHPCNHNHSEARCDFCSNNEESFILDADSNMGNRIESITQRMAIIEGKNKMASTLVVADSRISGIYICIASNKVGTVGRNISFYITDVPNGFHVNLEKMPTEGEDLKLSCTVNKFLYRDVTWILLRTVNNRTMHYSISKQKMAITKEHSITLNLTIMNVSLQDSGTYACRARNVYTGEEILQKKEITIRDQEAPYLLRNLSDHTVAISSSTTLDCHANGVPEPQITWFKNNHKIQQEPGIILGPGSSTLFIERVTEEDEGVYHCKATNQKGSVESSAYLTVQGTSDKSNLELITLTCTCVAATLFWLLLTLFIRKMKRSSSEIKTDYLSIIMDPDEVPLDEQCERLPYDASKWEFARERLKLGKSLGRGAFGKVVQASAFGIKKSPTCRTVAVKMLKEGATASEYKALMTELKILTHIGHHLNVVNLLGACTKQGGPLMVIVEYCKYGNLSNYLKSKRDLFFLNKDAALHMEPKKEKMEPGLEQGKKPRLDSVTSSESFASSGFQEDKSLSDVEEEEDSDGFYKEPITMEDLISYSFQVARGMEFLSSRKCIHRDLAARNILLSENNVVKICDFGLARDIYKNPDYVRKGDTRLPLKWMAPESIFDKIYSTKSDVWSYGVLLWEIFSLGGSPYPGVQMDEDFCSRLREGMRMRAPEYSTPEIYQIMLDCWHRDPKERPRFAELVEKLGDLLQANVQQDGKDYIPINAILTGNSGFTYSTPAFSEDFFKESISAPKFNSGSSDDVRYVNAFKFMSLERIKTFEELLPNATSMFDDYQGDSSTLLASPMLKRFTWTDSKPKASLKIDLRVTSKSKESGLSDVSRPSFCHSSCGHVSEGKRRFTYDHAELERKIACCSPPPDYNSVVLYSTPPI
# Chain of LYN A (P07948 whole entry): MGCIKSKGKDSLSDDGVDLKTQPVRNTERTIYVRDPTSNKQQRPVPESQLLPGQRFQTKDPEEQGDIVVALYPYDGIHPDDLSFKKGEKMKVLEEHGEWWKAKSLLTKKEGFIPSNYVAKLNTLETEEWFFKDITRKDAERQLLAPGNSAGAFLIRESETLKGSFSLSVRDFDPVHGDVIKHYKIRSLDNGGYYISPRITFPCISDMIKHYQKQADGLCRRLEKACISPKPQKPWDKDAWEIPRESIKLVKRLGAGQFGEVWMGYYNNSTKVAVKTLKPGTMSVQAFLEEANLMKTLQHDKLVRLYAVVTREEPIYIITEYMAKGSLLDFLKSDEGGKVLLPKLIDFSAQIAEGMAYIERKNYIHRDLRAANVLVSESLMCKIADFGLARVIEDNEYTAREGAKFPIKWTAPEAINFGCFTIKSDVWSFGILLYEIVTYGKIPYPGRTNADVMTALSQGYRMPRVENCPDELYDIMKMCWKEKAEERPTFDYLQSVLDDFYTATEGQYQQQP
# Chain of BTK (Homo sapiens, UniProt Q06187) (Q06187 whole entry): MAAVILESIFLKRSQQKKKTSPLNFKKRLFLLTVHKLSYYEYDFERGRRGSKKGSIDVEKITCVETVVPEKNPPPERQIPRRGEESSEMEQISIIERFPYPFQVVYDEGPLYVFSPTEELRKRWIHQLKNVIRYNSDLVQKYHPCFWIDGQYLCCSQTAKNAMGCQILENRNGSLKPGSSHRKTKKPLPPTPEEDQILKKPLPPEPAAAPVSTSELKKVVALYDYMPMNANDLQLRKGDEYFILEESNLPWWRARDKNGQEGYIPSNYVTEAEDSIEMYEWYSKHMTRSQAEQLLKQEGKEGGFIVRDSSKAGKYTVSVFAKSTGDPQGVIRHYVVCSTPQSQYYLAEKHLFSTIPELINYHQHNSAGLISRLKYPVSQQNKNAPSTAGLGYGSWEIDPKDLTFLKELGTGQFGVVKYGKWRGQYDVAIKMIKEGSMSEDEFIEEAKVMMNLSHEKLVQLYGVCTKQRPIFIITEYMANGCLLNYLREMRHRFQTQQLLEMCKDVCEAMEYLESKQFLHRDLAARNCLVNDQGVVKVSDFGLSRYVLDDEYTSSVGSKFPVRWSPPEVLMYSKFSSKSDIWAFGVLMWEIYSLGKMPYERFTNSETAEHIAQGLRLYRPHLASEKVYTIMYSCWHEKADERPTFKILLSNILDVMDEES
# T1 sequence (P35991 whole entry): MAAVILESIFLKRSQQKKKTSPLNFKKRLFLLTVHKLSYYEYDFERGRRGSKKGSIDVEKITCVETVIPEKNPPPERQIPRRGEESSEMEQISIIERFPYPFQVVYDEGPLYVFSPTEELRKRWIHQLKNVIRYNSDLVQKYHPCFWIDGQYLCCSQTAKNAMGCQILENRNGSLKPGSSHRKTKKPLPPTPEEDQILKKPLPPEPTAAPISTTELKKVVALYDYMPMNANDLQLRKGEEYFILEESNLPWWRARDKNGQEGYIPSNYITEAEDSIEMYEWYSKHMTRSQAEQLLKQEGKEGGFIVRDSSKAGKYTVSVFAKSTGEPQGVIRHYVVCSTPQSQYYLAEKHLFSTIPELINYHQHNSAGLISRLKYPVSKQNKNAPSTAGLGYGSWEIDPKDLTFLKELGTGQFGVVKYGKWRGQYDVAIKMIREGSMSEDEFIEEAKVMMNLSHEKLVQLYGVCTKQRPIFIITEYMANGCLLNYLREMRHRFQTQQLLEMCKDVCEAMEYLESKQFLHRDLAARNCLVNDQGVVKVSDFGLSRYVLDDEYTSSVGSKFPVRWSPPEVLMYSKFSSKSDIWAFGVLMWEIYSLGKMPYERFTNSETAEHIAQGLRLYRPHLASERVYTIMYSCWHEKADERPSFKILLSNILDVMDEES
# Chain of BLK (P51451 whole entry): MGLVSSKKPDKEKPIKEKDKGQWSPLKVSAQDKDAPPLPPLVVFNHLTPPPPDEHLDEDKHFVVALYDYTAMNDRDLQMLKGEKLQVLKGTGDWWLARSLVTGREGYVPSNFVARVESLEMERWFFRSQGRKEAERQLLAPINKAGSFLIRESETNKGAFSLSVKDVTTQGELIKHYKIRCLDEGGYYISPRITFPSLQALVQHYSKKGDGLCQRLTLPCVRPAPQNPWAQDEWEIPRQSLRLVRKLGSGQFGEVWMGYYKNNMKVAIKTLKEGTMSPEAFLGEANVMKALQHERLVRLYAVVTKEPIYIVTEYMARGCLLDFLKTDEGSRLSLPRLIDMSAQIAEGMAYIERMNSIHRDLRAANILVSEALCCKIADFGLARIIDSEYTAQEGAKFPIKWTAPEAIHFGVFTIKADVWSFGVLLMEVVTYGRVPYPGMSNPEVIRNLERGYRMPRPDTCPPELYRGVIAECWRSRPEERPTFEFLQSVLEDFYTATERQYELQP
structure (smiles),measurement,setting,value
COC/C=C/C(=O)N1CC[C@@H](n2nc(-c3ccc(Oc4ccccc4)cc3)c(C(N)=O)c2N)C1 [SY-1530],"Inhibition (%), BLK",[1],53%
same,"Inhibition (%), FGR",[2],96%
same,"Inhibition (%), FLT1",[3],33%
same,"Inhibition (%), LYN A",[4],87%
same,IC50,[5],> 25 µM
same,IC50,[6],23.8 µM
same,IC50,[7],> 25 µM
same,Binding of FL-SY-1530 to BTK after pretreatment with inhibitor,[8],scarcely bound
same,Up-regulation of CD69 in B cells after anti-IgM,"[9]; continuous exposure, 10 nM",completely abolished
same,Up-regulation of CD69 in B cells after anti-IgM,[9]; inhibitors washed out before BCR stimulation,blocked
same,BTK protein in splenocytes bound by inhibitor,[10],still bound
same,AUC0–∞,"[11]; iv, 3 mg/kg",5.458 µg·h/mL
same,CL,"[11]; iv, 3 mg/kg",0.559 L/h/kg
same,Vss,"[11]; iv, 3 mg/kg",0.857 L/kg
same,t½,"[11]; iv, 3 mg/kg",1.44 h
same,AUC0–∞,"[11]; po, 10 mg/kg",4.411 µg·h/mL
same,Cmax,"[11]; po, 10 mg/kg",1.039 µg/mL
same,F (%),"[11]; po, 10 mg/kg",24.2%
same,Tmax,"[11]; po, 10 mg/kg",1.08 h
same,t½,"[11]; po, 10 mg/kg",3.85 h
same,AUC0–∞,"[11]; po, 30 mg/kg",6.365 µg·h/mL
same,Cmax,"[11]; po, 30 mg/kg",1.572 µg/mL
same,F (%),"[11]; po, 30 mg/kg",11.7%
same,Tmax,"[11]; po, 30 mg/kg",0.917 h
same,t½,"[11]; po, 30 mg/kg",5.33 h
same,AUC0–∞,"[11]; po, 100 mg/kg",9.095 µg·h/mL
same,Cmax,"[11]; po, 100 mg/kg",2.127 µg/mL
same,F (%),"[11]; po, 100 mg/kg",5.00%
same,Tmax,"[11]; po, 100 mg/kg",1.25 h
same,t½,"[11]; po, 100 mg/kg",5.03 h
same,Plasma protein binding (%),[12],95.0%
same,"Ratio, TEC",[13]; IC50 SY-1530 over IC50 ibrutinib,1.3
same,IC50,"[13]; read-out: IC50 (nM), TEC, HTRF",10.4 nM

# — PMC9334755 (Cancer Biology & Medicine, 2021)
